Assay results reported in PubChem BioAssay (NCI).
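Briefly, cells in 96-well plates were exposed to five compound concentrations for 48 h, and endpoints were estimated by linear interpolation. Abbreviation: GI50, concentration required for 50% inhibition of growth. TGI: concentration producing complete growth inhibition.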 Where a SMILES comes first, the peptide text is derived from it. The star is where a group is joined. Cbz = O=C(OCc1ccccc1)*; CH2Cl = ClC*

system: MDA-MB-435; experiment: DTP human tumour cell line panel, 48 h

Q: What does the source list for `O=C(N[C@@H](c1ccc(Cl)c(Cl)c1)C1CNC1)c1ccc2cnccc2c1`?
A: GI50: 216 nM; TGI: 3.81 µM

Q: Which GI50 does the source give for `O=C1OCC2=C1C(c1cccc(Br)c1)c1cc3c(cc1N2CCO)CCC3` (stereo unspecified) here?
A: 13.2 nM

Q: And the TGI?
A: 0.0423 µM

Q: For `Nc1nc(/C=C\c2ccc([N+](=O)[O-])s2)nc(N2CCCC2)n1`, which GI50 is on record?
A: 2240 nM

Q: What about the TGI of the same compound?
A: 8.09 µM

Q: For `CC(=O)OC12C=CC(=O)N1c1ccccc1C(=O)O2` (stereo unspecified), which GI50 is on record?
A: > 100000 nM

Q: What about the TGI of the same compound?
A: > 100 µM

Q: How did the TGI turn out when `Oc1cccnc1[Se]` was run?
A: > 100 µM

Q: With `CC(C)Oc1ccc2cc(-c3nn(CC4CCNCC4)c4ncnc(N)c34)ccc2c1` as the compound, how does the GI50 read?
A: 3860 nM

Q: And the TGI?
A: 14.6 µM

Q: How did the GI50 turn out when `COc1cc(F)ccc1-c1ncnc(Nc2cccc(CS(C)(=N)=O)c2)n1` (stereo unspecified) was run?
A: 1550 nM

Q: What about the TGI of the same compound?
A: > 100 µM

Q: What does the source list for `CS(=O)(=O)CCNCc1nc(-c2ccc3ncnc(Nc4ccc(OCc5cccc(C(F)(F)F)c5)cc4)c3c2)cs1`?
A: GI50: > 25000 nM; TGI: > 25 µM

Q: How did the TGI turn out when `CC(C)CC(NC(=O)OCc1ccccc1)C(=O)NC(Cc1ccccc1)C(=O)CCl` (stereo not drawn) (Cbz-Leu-Phe-CH2Cl; configuration not given here) was run?
A: 6.56 µM

Q: Which GI50 does the source give for `[Cl][Hg][c]1cc[c]([Hg][Cl])o1` here?
A: 3400 nM

Q: What about the TGI of the same compound?
A: 14.4 µM

Q: How did the GI50 turn out when `CCOC(=O)C(Cc1ccc(CCCC(=O)NCCC(=O)Nc2ccc3nc(C)sc3c2)cc1)C(=O)OCC` was run?
A: 26000 nM

Q: And the TGI?
A: 76.5 µM

Q: Which GI50 does the source give for `NCCNc1c2c(c(NCCN)c3[nH]ccc13)C(=O)c1ccccc1C2=O` here?
A: 225 nM

Q: And the TGI?
A: 0.692 µM

Q: How did the TGI turn out when `Cc1c2c(C#N)nccc2c(C)c2c1c1ccccc1n2Cc1ccccc1` was run?
A: > 100 µM

Q: `COc1cc(Cn2c(-c3ccccc3)c(Cl)c3c2-c2oncc2CC3)cc(OC)c1` was tested. Which GI50 did it give?
A: 2260 nM

Q: And the TGI?
A: 5.97 µM

Q: Which results are given for `COc1ccc(-c2nn(-c3ccc(NC(=O)c4ccc(Cl)c(Cl)c4)cc3)cc2-c2ccncc2)cc1Cl`?
A: GI50: 3970 nM; TGI: > 50 µM

Q: Which results are given for `O=C(CC1(O)C(=O)N(Cc2ccccc2)c2ccc(F)cc21)c1ccc(C(=O)NCC2CCC3(CC2)OOC2(CCCCC2)OO3)cc1` (stereo unspecified)?
A: GI50: 468 nM; TGI: 1.42 µM

Q: `COc1cc2c3c(n(C)c(=O)c2cc1OC)-c1cc2c(cc1/C3=C\CN)OCO2` was tested. Which GI50 did it give?
A: 819 nM

Q: What about the TGI of the same compound?
A: 33.8 µM

Q: `CN(C)C(n1cc2c(c1)-c1ccc(Cl)cc1C(c1ccccc1F)=NC2)n1cc2c(c1)-c1ccc(Cl)cc1C(c1ccccc1F)=NC2` was tested. Which TGI did it give?
A: > 100 µM

Q: With `COc1ccc(/C=C2/N=C(c3ccccc3)N(c3c(C)n(C)n(-c4ccccc4)c3=O)C2=O)cc1OC` as the compound, how does the GI50 read?
A: > 100000 nM

Q: And the TGI?
A: > 100 µM

Q: How did the GI50 turn out when `C[C@@H]1CC[C@@H]2[C@@H]1[C@H](OC(=O)/C=C/c1ccccc1)[C@]1(C3CCCCC3)C[C@@H](OC(=O)CO)[C@@]2(C)O1` was run?
A: 2990 nM

Q: And the TGI?
A: 11 µM

Q: Which results are given for `CCn1c2ccccc2c2cc(NC(=O)Nc3ccc([N+](=O)[O-])cc3C)ccc21`?
A: GI50: 2620 nM; TGI: 23.5 µM

Q: Which results are given for `COc1cccc2c1C(=O)c1c(O)c3c(c(O)c1C2=O)C[C@](O)(C(=O)CO)C[C@H]3O[C@@H]1C[C@@H](NC(=O)CCCCCN(C)C2(c3ccc(F)cc3)CC3CCC2C3)[C@H](O)[C@@H](C)O1` (stereo partly specified)?
A: GI50: 8670 nM; TGI: 19.4 µM

Q: Which results are given for `CCSc1ncnc2c1ncn2C1OC(CO)C(O)C1O` (stereo unspecified)?
A: GI50: 482 nM; TGI: > 100 µM

Q: Which GI50 does the source give for `O=C(CSc1nc2ccccc2nc1-c1ccccc1)Nc1ccc(F)cc1` here?
A: > 100000 nM

Q: And the TGI?
A: > 100 µM

Q: With `CC[C@H]1[C@@H]2C=C[C@@H]3[C@H]4C/C=C\C(=O)NCCC[C@@H]5NC(=O)/C(=C(O)/C=C/[C@@H]4C[C@@H]3[C@H]2C[C@H]1C)C5=O` as the compound, how does the GI50 read?
A: 982 nM

Q: And the TGI?
A: 2.25 µM

system: SK-OV-3 ovarian; experiment: DTP human tumour cell line panel, 48 h

Q: For `O=C(N[C@@H](c1ccc(Cl)c(Cl)c1)C1CNC1)c1ccc2cnccc2c1`, which GI50 is on record?
A: 0.239 µM

Q: And the TGI?
A: 6.86 µM

Q: Which results are given for `O=C1OCC2=C1C(c1cccc(Br)c1)c1cc3c(cc1N2CCO)CCC3` (stereo unspecified)?
A: GI50: 0.102 µM; TGI: 1.58 µM

Q: `Nc1nc(/C=C\c2ccc([N+](=O)[O-])s2)nc(N2CCCC2)n1` was tested. Which GI50 did it give?
A: 9.25 µM

Q: What about the TGI of the same compound?
A: 30.4 µM

Q: How did the TGI turn out when `CC(=O)OC12C=CC(=O)N1c1ccccc1C(=O)O2` (stereo unspecified) was run?
A: > 100 µM

Q: For `Oc1cccnc1[Se]`, which TGI is on record?
A: > 100 µM

Q: With `CC(C)Oc1ccc2cc(-c3nn(CC4CCNCC4)c4ncnc(N)c34)ccc2c1` as the compound, how does the GI50 read?
A: 13.8 µM

Q: And the TGI?
A: 27.9 µM
